In data set [1] the test system is HBV replication in HepAD38 cells. The data set is described as follows: Anti-HBV replication assay in HepAD38 cells (QPCR of extracellular HBV DNA). Type of data set: cell-based, HBV (genotype D, serotype ayw). To be noted: Hepatitis B virus, 168 h, 7 days incubation, extracellular HBV DNA by QPCR, read-out: Anti-HBV EC50. An outline of the steps:
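Read-out is QPCR of HBV DNA released into culture supernatant, converted to percent of vehicle control and fitted to give EC50. Cells were HepAD38 induced by tetracycline removal and dosed […] for 7 days.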

Data set [2] can be described thus: In vitro cytotoxicity assay (MTT cell viability) in HepG2 cells. It is filed as cell-based, human. Conditions: human. An outline of the steps: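 CC50 values reflect loss of HepG2 viability after a 7-day exposure at 37 °C, 5% CO2. After 3-4 h with MTT, solubilized formazan was quantified at 492 nm relative to vehicle wells.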

pEC50: −log10 of the molar value.

With `O=C(N[C@H]1C[C@H](O)C1)C(=O)c1c(Cl)c(C(=O)Nc2ccc(F)c(F)c2)c2n1CCCC2` [Example 533, 2-chloro-N-(3,4-difluorophenyl)-3-(2-(((1r,3r)-3-hydroxycyclobutyl)amino)-2-oxoacetyl)-5,6,7,8-tetrahydroindolizine-1-carboxamide], the negative logarithm of the EC50 (pEC50) in data set [1] is 6.00 to 6.30. The compound further showed a CC50 at 7 days in data set [2] greater than 30 µM.

As for `CC(C)(O)CNC(=O)C(=O)c1c(Cl)c(C(=O)Nc2ccc(F)c(F)c2)c2n1CCCC2` [Example 534, 2-chloro-N-(3,4-difluorophenyl)-3-(2-((2-hydroxy-2-methylpropyl)amino)-2-oxoacetyl)-5,6,7,8-tetrahydroindolizine--1 carboxamide], the negative-log EC50 (pEC50) in data set [1] is 6.30 to 7.30. This compound came in with a CC50 at 7 days in data set [2] of 5 to 30 µM.

`CC(C)(C)NC(=O)C(=O)c1cc(C(=O)Nc2ccc(F)c(Cl)c2)c2n1CCC2` [Example 535, 5-(2-(tert-butylamino)-2-oxoacetyl)-N-(3-chloro-4-fluorophenyl)-2,3-dihydro-1H-pyrrolizine-7-carboxamide]: the pEC50 in data set [1] is greater than 7.30. This compound also gave a CC50 at 7 days in data set [2] of 0.5 to 4.99 µM.

Turning to `Cc1cc(NC(=O)c2cc(C(=O)C(=O)NC(C)(C)C)n3c2CCC3)ccc1F` [Example 536, 5-(2-(tert-butylamino)-2-oxoacetyl)-N-(4-fluoro-3-methylphenyl)-2,3-dihydro-1H-pyrrolizine-7-carboxamide], the negative-log EC50 (pEC50) in data set [1] was greater than 7.30. Further, the cytotoxic concentration (CC50) at 7 days in data set [2] was greater than 30 µM.

In the case of `Cc1cc(NC(=O)c2cc(C(=O)C(=O)NC(C)(C)CO)n3c2CCC3)ccc1F` [Example 537, N-(4-fluoro-3-methylphenyl)-5-(2-((1-hydroxy-2-methylpropan-2-yl)amino)-2-oxoacetyl)-2,3-dihydro-1H-pyrrolizine-7-carboxamide], the pEC50 in data set [1] is 6.30 to 7.30. Besides, the CC50 at 7 days in data set [2] was greater than 30 µM.

With `Cc1cc(NC(=O)c2c(Cl)c(C(=O)C(=O)NC(C)(C)C)n3c2CCC3)ccc1F` [Example 539, 5-(2-(tert-butylamino)-2-oxoacetyl)-6-chloro-N-(4-fluoro-3-methylphenyl)-2,3-dihydro-1H-pyrrolizine-7-carboxamide], the pEC50 in data set [1] is greater than 7.30. In data set [2], this compound returned a CC50 at 7 days of 5 to 30 µM.

Consider `Cc1cc(NC(=O)c2c(Cl)c(C(=O)C(=O)NC(C)(C)CO)n3c2CCC3)ccc1F` [Example 540, 6-chloro-N-(4-fluoro-3-methylphenyl)-5-(2-((1-hydroxy-2-methylpropan-2-yl)amino)-2-oxoacetyl)-2,3-dihydro-1H-pyrrolizine-7-carboxamide], for which the pEC50 in data set [1] is greater than 7.30. The same compound displayed a half-maximal cytotoxic concentration (CC50) at 7 days in data set [2] greater than 30 µM.

On to `Cc1cc(NC(=O)c2c(Cl)c(C(=O)C(=O)NC3(CO)CCC3)n3c2CCC3)ccc1F` [Example 541, 6-chloro-N-(4-fluoro-3-methylphenyl)-5-(2-((1-(hydroxymethyl)cyclobutyl)amino)-2-oxoacetyl)-2,3-dihydro-1H-pyrrolizine-7-carboxamide], for which the negative logarithm of the EC50 (pEC50) in data set [1] is greater than 7.30. Also, the cytotoxic concentration (CC50) at 7 days in data set [2] is greater than 30 µM.

Turning to `Cc1cc(NC(=O)c2c(Cl)c(C(=O)C(=O)NC3(CO)CC3)n3c2CCC3)ccc1F` [Example 542, 6-chloro-N-(4-fluoro-3-methylphenyl)-5-(2-((1-(hydroxymethyl)cyclopropyl)amino)-2-oxoacetyl)-2,3-dihydro-1H-pyrrolizine-7-carboxamide], the pEC50 in data set [1] was greater than 7.30. In data set [2], this compound yielded a CC50 at 7 days greater than 30 µM.

As to `Cc1noc([C@@H](NC(=O)C(=O)c2c(Cl)c(C(=O)Nc3ccc(F)c(C)c3)c3n2CCC3)C(C)C)n1` [Example 543, (S)-6-chloro-N-(4-fluoro-3-methylphenyl)-5-(2-((2-methyl-1-(3-methyl-1,2,4-oxadiazol-5-yl)propyl)amino)-2-oxoacetyl)-2,3-dihydro-1H-pyrrolizine-7-carboxamide], the pEC50 in data set [1] is greater than 7.30. In data set [2], this compound came in with a cytotoxic concentration (CC50) at 7 days greater than 30 µM.

For the compound `Cc1noc([C@H](NC(=O)C(=O)c2c(Cl)c(C(=O)Nc3ccc(F)c(C)c3)c3n2CCC3)C(C)C)n1` [Example 544, (R)-6-chloro-N-(4-fluoro-3-methylphenyl)-5-(2-((2-methyl-1-(3-methyl-1,2,4-oxadiazol-5-yl)propyl)amino)-2-oxoacetyl)-2,3-dihydro-1H-pyrrolizine-7-carboxamide], in data set [1], the negative logarithm of the EC50 (pEC50) is greater than 7.30. Moreover, the half-maximal cytotoxic concentration (CC50) at 7 days in data set [2] is greater than 30 µM.

On to `Cc1noc([C@H](C)NC(=O)C(=O)c2c(Cl)c(C(=O)Nc3ccc(F)c(C)c3)c3n2CCC3)n1` [Example 545, (S)-6-chloro-N-(4-fluoro-3-methylphenyl)-5-(2-((1-(3-methyl-1,2,4-oxadiazol-5-yl)ethyl)amino)-2-oxoacetyl)-2,3-dihydro-1H-pyrrolizine-7-carboxamide], for which the negative-log EC50 (pEC50) in data set [1] was greater than 7.30. The CC50 at 7 days in data set [2] is 5 to 30 µM.

Consider `Cc1noc([C@@H](C)NC(=O)C(=O)c2c(Cl)c(C(=O)Nc3ccc(F)c(C)c3)c3n2CCC3)n1` [Example 546, (R)-6-chloro-N-(4-fluoro-3-methylphenyl)-5-(2-((1-(3-methyl-1,2,4-oxadiazol-5-yl)ethyl)amino)-2-oxoacetyl)-2,3-dihydro-1H-pyrrolizine-7-carboxamide], for which the negative logarithm of the EC50 (pEC50) in data set [1] was greater than 7.30. Moreover, the CC50 at 7 days in data set [2] was greater than 30 µM.

As for `Cc1cc(NC(=O)c2c(Cl)c(C(=O)C(=O)N[C@H]3CCC[C@H]3O)n3c2CCC3)ccc1F` [Example 547, 6-chloro-N-(4-fluoro-3-methylphenyl)-5-(2-(((1S,2R)-2-hydroxycyclopentyl)amino)-2-oxoacetyl)-2,3-dihydro-1H-pyrrolizine-7-carboxamide], the pEC50 in data set [1] was 6.30 to 7.30. The CC50 at 7 days in data set [2] was 5 to 30 µM.

Consider `Cc1cc(NC(=O)c2c(Cl)c(C(=O)C(=O)NC3(CO)CC(F)(F)C3)n3c2CCC3)ccc1F` [Example 548, 6-chloro-5-(2-((3,3-difluoro-1-(hydroxymethyl)cyclobutyl)amino)-2-oxoacetyl)-N-(4-fluoro-3-methylphenyl)-2,3-dihydro-1H-pyrrolizine-7-carboxamide], for which, in data set [1], the pEC50 is greater than 7.30. Further, the CC50 at 7 days in data set [2] lay within 5 to 30 µM.

Turning to `Cc1cc(NC(=O)c2c(Cl)c(C(=O)C(=O)NCC(C)(C)CO)n3c2CCC3)ccc1F` [Example 549, 6-chloro-N-(4-fluoro-3-methylphenyl)-5-(2-((3-hydroxy-2,2-dimethylpropyl)amino)-2-oxoacetyl)-2,3-dihydro-1H-pyrrolizine-7-carboxamide], the pEC50 in data set [1] is 6.00 to 6.30. This compound also displayed a cytotoxic concentration (CC50) at 7 days in data set [2] greater than 30 µM.

As for `Cc1cc(NC(=O)c2c(Cl)c(C(=O)C(=O)NCC(C)(C)O)n3c2CCC3)ccc1F` [Example 550, 6-chloro-N-(4-fluoro-3-methylphenyl)-5-(2-((2-hydroxy-2-methylpropyl)amino)-2-oxoacetyl)-2,3-dihydro-1H-pyrrolizine-7-carboamide], the pEC50 in data set [1] is greater than 7.30. Further, in data set [2], the half-maximal cytotoxic concentration (CC50) at 7 days is greater than 30 µM.

As for `O=C(N[C@H]1C[C@H](O)C1)C(=O)c1c(Cl)c(C(=O)Nc2ccc(F)c(F)c2)c2n1CCC2` [Example 551, 6-chloro-N-(3,4-difluorophenyl)-5-(2-(((1r,3r)-3-hydroxycyclobutyl)amino)-2-oxoacetyl)-2,3-dihydro-1H-pyrrolizine-7-carboxamide], the pEC50 in data set [1] was 6.30 to 7.30. For the same compound, in data set [2], the half-maximal cytotoxic concentration (CC50) at 7 days is greater than 30 µM.

Consider `Cc1cc(NC(=O)c2c(Cl)c(C(=O)C(=O)NCc3cnc(N)s3)n3c2CCC3)ccc1F` [Example 552, 5-(2-(((2-aminothiazol-5-yl)methyl)amino)-2-oxoacetyl)-6-chloro-N-(4-fluoro-3-methylphenyl)-2,3-dihydro-1H-pyrrolizine-7-carboxamide], for which the negative-log EC50 (pEC50) in data set [1] was greater than 7.30. Besides, the CC50 at 7 days in data set [2] fell in the range of 5 to 30 µM.

With `Cc1noc([C@H](C)NC(=O)C(=O)c2c(Cl)c(C(=O)Nc3ccc(F)c(Cl)c3)c3n2CCC3)n1` [Example 553, (S)-6-chloro-N-(3-chloro-4-fluorophenyl)-5-(2-((1-(3-methyl-1,2,4-oxadiazol-5-yl)ethyl)amino)-2-oxoacetyl)-2,3-dihydro-1H-pyrrolizine-7-carboxamide], in data set [1], the pEC50 was greater than 7.30. The same compound displayed a half-maximal cytotoxic concentration (CC50) at 7 days in data set [2] of 5 to 30 µM.

In the case of `Cc1noc([C@@H](C)NC(=O)C(=O)c2c(Cl)c(C(=O)Nc3ccc(F)c(Cl)c3)c3n2CCC3)n1` [Example 554, (R)-6-chloro-N-(3-chloro-4-fluorophenyl)-5-(2-((1-(3-methyl-1,2,4-oxadiazol-5-yl)ethyl)amino)-2-oxoacetyl)-2,3-dihydro-1H-pyrrolizine-7-carboxamide], the negative logarithm of the EC50 (pEC50) in data set [1] was greater than 7.30. In addition, the CC50 at 7 days in data set [2] lay within 5 to 30 µM.

As for `O=C(N[C@H]1C[C@H](O)C1)C(=O)c1c(Cl)c(C(=O)Nc2ccc(F)c(Cl)c2)c2n1CCC2` [Example 555, 6-chloro-N-(3-chloro-4-fluorophenyl)-5-(2-(((1r,3r)-3-hydroxycyclobutyl)amino)-2-oxoacetyl)-2,3-dihydro-1H-pyrrolizine-7-carboxamide], in data set [1], the pEC50 is 6.30 to 7.30. Besides, the half-maximal cytotoxic concentration (CC50) at 7 days in data set [2] lay in the range of 5 to 30 µM.

As for `CC(C)(CO)CNC(=O)C(=O)c1c(Cl)c(C(=O)Nc2ccc(F)c(Cl)c2)c2n1CCC2` [Example 556, 6-chloro-N-(3-chloro-4-fluorophenyl)-5-(2-((3-hydroxy-2,2-dimethylpropyl)amino)-2-oxoacetyl)-2,3-dihydro-1H-pyrrolizine-7-carboxamide], the pEC50 in data set [1] was 6.30 to 7.30. In data set [2], this compound gave a cytotoxic concentration (CC50) at 7 days of 5 to 30 µM.

As for `CC(C)(O)CNC(=O)C(=O)c1c(Cl)c(C(=O)Nc2ccc(F)c(Cl)c2)c2n1CCC2` [Example 557, 6-chloro-N-(3-chloro-4-fluorophenyl)-5-(2-((2-hydroxy-2-methylpropyl)amino)-2-oxoacetyl)-2,3-dihydro-1H-pyrrolizine-7-carboxamide], the negative logarithm of the EC50 (pEC50) in data set [1] is greater than 7.30. The CC50 at 7 days in data set [2] was 5 to 30 µM.

The pEC50 is the negative decadic logarithm of the EC50, by convention in mol/L. The CC50 is the concentration at which the toxic effect on the cells reaches its halfway point. A low value points to greater toxicity to the cells.

For the origin of these results see patent publication US20190375708A1 (VenatoRx Pharmaceuticals, Inc., priority 2018, published 2019).
